Like-named read-outs stand apart in the source and are kept apart here.
Legend:
T61 human tumors = settings: in vivo; cited from earlier work
[1] = tested on: DMBA-induced mammary tumors; settings: cited from earlier work
T47D cells = settings: cited from earlier work
glucocorticoid receptor = biological target: T1, glucocorticoid receptor (Homo sapiens, UniProt P04150); settings: cited from earlier work
T1 sequence (P04150 1-777): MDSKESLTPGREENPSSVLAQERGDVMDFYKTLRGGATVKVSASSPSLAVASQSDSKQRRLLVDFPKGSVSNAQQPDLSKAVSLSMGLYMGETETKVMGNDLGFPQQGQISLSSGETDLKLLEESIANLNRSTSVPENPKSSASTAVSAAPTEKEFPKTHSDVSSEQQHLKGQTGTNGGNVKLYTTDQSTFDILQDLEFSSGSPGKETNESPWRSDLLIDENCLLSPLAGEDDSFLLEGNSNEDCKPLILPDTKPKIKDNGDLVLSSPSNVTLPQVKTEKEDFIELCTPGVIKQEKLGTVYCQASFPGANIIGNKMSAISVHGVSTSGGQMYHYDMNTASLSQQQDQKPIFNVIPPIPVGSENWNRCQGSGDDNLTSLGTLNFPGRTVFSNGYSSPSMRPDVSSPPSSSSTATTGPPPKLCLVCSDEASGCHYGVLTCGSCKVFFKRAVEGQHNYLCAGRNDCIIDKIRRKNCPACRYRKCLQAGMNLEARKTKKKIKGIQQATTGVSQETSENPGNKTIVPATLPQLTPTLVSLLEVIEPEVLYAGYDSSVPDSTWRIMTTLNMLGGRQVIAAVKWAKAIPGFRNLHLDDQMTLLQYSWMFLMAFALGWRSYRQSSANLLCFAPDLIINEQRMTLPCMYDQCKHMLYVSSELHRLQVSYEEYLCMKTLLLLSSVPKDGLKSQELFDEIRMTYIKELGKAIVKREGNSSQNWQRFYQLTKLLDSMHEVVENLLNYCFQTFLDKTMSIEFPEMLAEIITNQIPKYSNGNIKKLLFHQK

breast cancer = settings: cited from earlier work
[2] = tested on: primary cultures of responsive tumors; settings: 1-100 nM; cited from earlier work
HI-responsive tumors [3] = settings: cited from earlier work; for therapeutic effects: murine mammary carcinomas with increased PR-A/PR-B
PR [4] = biological target: T2, PR (Homo sapiens, UniProt P06401); settings: cited from earlier work
T2 sequence (P06401 1-933): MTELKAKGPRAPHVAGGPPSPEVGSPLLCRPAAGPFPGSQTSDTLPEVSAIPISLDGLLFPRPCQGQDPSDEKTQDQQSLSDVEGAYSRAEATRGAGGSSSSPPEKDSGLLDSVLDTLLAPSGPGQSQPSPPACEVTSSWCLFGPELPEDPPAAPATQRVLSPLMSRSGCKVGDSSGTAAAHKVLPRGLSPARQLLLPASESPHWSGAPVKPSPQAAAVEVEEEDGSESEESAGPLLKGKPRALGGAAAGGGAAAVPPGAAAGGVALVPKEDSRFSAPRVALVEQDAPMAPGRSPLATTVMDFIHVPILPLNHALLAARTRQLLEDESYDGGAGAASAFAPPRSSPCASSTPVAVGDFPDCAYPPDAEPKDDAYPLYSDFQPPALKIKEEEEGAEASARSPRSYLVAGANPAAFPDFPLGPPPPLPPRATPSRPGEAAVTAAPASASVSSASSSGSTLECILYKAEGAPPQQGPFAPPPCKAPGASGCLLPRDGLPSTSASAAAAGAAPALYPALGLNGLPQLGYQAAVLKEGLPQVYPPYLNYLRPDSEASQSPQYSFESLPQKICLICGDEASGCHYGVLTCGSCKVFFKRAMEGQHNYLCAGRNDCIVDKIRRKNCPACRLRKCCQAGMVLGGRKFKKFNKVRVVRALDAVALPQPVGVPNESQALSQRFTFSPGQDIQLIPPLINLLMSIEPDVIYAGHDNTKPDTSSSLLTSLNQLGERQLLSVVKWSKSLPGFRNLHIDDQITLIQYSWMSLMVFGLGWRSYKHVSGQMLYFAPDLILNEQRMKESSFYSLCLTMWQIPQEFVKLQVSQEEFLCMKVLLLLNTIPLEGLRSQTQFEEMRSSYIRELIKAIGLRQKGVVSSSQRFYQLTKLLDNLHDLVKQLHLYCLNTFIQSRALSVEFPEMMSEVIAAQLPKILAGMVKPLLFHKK

[5] = tested on: MXT mouse model of breast cancer; settings: cited from earlier work
MCF-7 xenografts = settings: MIF 50 mg/kg/day, ONA 30 mg/kg/day, 17 days; cited from earlier work
C4-HIR cells = experiment: (3H)-thymidine uptake, primary cultures of purified epithelial cells; assay type: cell-based, mouse; settings: 48 h, with MPA; P<0.001
Method: (§1) Epithelial cells and carcinoma-associated fibroblasts were separated by differential sedimentation and plated with 10% FCS. Carcinoma-associated fibroblasts were allowed to attach for 0.5 h and the epithelial cells for 24-48 h. The medium was replaced by fresh medium with 10% FCS; thereafter, it was changed every 2-3 days.
(§2) (3H)-thymidine-uptake was used as an indirect method to evaluate cell proliferation. In brief, cells were seeded into 96-well microplates. After attachment (24 h), the cells were incubated for 24 h with 1% steroid-stripped FCS and then for 48 h with the experimental solutions to be tested in 1% chFCS. Fifty percent of the medium was replaced with fresh medium every 24 h. The cells were incubated with 0.4 μCi of 3H-thymidine (specific activity: 20 Ci/mmol) for 24 h, trypsinized, and harvested in a cell harvester. In experiments in which 5azadC was used, the experiments were carried out using proliferating cells (presence of 10% FCS) to guarantee the effect of the demethylating agent. Three different experiments were made using octuplicates, and the means and standard deviations of one representative experiment of the other three are shown. The results are expressed as the proliferation index (cpm […] experimental group/cpm control; mean±SEM).

C4-HI cells = experiment: as above; assay type: cell-based, mouse; settings: 48 h, with MPA; P<0.001
Method: as §1, §2

MCF-7 cells = settings: 10 nM; 10% steroid-deficient human serum; cited from earlier work
HI-responsive tumors [6] = experiment: MPA breast cancer model, HI-responsive tumors in vivo; set-up: species or system mouse
[7] = tested on: epithelial cells from breast cancer samples; experiment: Primary cultures from breast cancer samples: cell number or Ki67; assay type: cell-based, human; settings: 10^-8 M, one week; 3 out of 8 cases; p<0.05
From the text: The samples were obtained at surgery from patients diagnosed with breast cancer at the […]. de Martinez Hospital from General Pacheco and at the […] Hospital of Buenos Aires after signing the informed consent (n=70; median age 55 year). Protocols were approved by the Institutional Ethical Review Board. Whenever possible, one piece of the sample was kept in dry ice immediately after surgery and another piece was kept in culture medium and transported to IBYME. Tumor samples were processed by mechanical and enzymatic degradation and epithelial cells were purified by differential sedimentation techniques (7). The epithelial cells were cultured with DMEM/F12 medium plus 10% fetal calf serum (FCS). Once the cultures were overcrowded, they were subcultured and equal numbers of cells were seeded in 24 well plates. […] OH-Tamoxifen was also used as a control. After one week of treatment, the cells were trypsinized and the total number of cells in each well was counted or alternatively, they were fixed to evaluate the Ki67 (proliferation marker) expression by IHC. In several cases in which there were carcinoma associated fibroblasts intermingled with the epithelial cells, a double staining of Ki67 and cytokeratin (CK) was performed to consider the proliferating cells among the total number of epithelial cells (CK+). An inhibitory index was calculated for each tumor.

GR = GR (Homo sapiens, UniProt P04150); settings: cited from earlier work
PR [8] = biological target: T2, PR; settings: cited from earlier work; remark: listed apart in the source

SMILES: CC#C[C@]1(O)CC[C@H]2[C@@H]3CCC4=CC(=O)CCC4=C3[C@@H](c3ccc(C(C)=O)cc3)C[C@@]21C [ZK 112993]
- tumor growth (T61 human tumors): significantly inhibits the growth

SMILES: C[C@H]1CC2=CC(=O)CCC2=C2[C@@H]1[C@@H]1CC[C@@]3(CCCO3)[C@@]1(C)C[C@@H]2c1ccc(N(C)C)cc1 [Org 31806]
- efficacy compared with MIF ([1]; p.o.): more effective than MIF

SMILES: C[C@@H]1C[C@@H]2C(=C3CCC(=O)C=C31)[C@@H](c1ccc(N(C)C)cc1)C[C@@]1(C)[C@H]2CC[C@@]12CCCO2 [Org 31710]
- efficacy compared with MIF ([1]; p.o.): more effective than MIF

SMILES: CCC(=O)[C@@]1(C)CC[C@H]2[C@@H]3CCC4=CC(=O)CCC4=C3CC[C@@]21C [R5020]
- proliferation of T47D and MCF-7 cells (T47D cells; MIF at micromolar concentrations): stimulate the proliferation

SMILES: COCC(=O)[C@@]1(OC(C)=O)CC[C@H]2[C@@H]3CCC4=CC(=O)CCC4=C3[C@@H](c3ccc(N(C)C)cc3)C[C@@]21C [CDB-4124]
- antiglucocorticoid activity (glucocorticoid receptor): less than that of MIF

SMILES: CN(C)c1ccc([C@H]2C[C@]3(C)[C@@H](CC[C@]3(O)CCCO)[C@@H]3CCC4=CC(=O)CCC4=C32)cc1 [ONA, onapristone]
- partial response (breast cancer; 19 patients): 56%
- stable disease (breast cancer; 19 patients): 11%
- reason for discontinuation (breast cancer; human, in vivo): hepatotoxicity
- reason for stopping the trial (breast cancer; human, in vivo): liver function test abnormalities
- antiglucocorticoid activity (glucocorticoid receptor): antiglucocorticoid effects at higher concentrations
- effects on T47D cells (T47D cells; 5% FCS): inhibitory effects
- MPA-induced or FGF2-induced cell proliferation [2]: inhibited MPA-induced or FGF2-induced cell proliferation
- efficacy compared with MIF ([1]; same doses): more efficacious than MIF
- tumor regression (HI-responsive tumors [3]; daily doses of 10 mg/kg): regress
- tumor regression (HI-responsive tumors [3]; mouse, in vivo): induced tumor regression
- therapeutic effects (HI-responsive tumors [3]): excellent therapeutic effects
- effect in cells treated with analogs of cyclic AMP (PR [4]; T47D cells transfected with MMTV-CAT): still behaved as an antagonist
- inhibition of cell proliferation compared with MIF ([5]; 10 mg/kg/day): better than MIF at inhibiting cell proliferation
- tumor take and stimulatory effects of E2 and MPA ([5]; 1 or 10 mg/kg/day from one day post-transplantation): inhibited both tumor take and the stimulatory effects of E2 and MPA
- tumor growth (T61 human tumors): has no effect
- E2-induced proliferation of xenografts (MCF-7 xenografts): inhibited

SMILES: CC(=O)c1ccc([C@H]2C[C@@]3(C)[C@@H](CC[C@@]3(O)C(F)(F)C(F)(F)F)[C@@H]3CCC4=CC(=O)CCC4=C32)cc1 [ZK 230211, lonaprisan]
- antiglucocorticoid activity (glucocorticoid receptor): low antiglucocorticoid activity
- apoptosis (T47D cells; 10 nM): induces apoptosis
- MPA-induced or FGF2-induced cell proliferation [2]: inhibited MPA-induced or FGF2-induced cell proliferation
- tumor regression (HI-responsive tumors [3]; daily doses of 10 mg/kg): regress
- tumor regression (HI-responsive tumors [3]; mouse, in vivo): induced tumor regression
- therapeutic effects (HI-responsive tumors [3]): excellent therapeutic effects
- effect on PKA-activated PR-B (PR [4]): no effect on PKA-activated PR-B
- MPA-induced proliferative effect (C4-HIR cells): abolished
- MPA-induced proliferative effect (C4-HI cells): abolished

SMILES: CC/C(=C(\c1ccccc1)c1ccc(OCCN(C)C)cc1)c1ccccc1 [Tamoxifen, tamoxifen]
- E2-induced cell proliferation (MCF-7 cells): inhibited E2-induced cell proliferation
- E2-induced cell proliferation (T47D cells; clone 11, ER- and PR-positive): specifically inhibit E2-induced cell proliferation
- tumor growth (HI-responsive tumors [6]; mouse, in vivo): tumor growth was inhibited
- PR (and ER) expression ([1]; rat, in vivo): increased PR expression
- number of cells as compared to the controls [7]: significant decrease in the number of cells
- tumor growth (T61 human tumors): inhibits tumor growth

SMILES: CC(=O)O[C@]1(C(C)=O)CC[C@H]2[C@@H]3CCC4=CC(=O)CCC4=C3[C@@H](c3ccc(N(C)C)cc3)C[C@@]21C [CDB-2914]
- antiglucocorticoid activity (glucocorticoid receptor): less than that of MIF

SMILES: C/C=C\[C@]1(O)CC[C@H]2[C@@H]3CCC4=CC(=O)CCC4=C3[C@@H](c3ccc(N(C)C)cc3)C[C@@]21C [Aglepristone]
- GR affinity (GR): lower affinity
- PR affinity (PR [8]): high affinity
- tumor regression (HI-responsive tumors [6]; 3 mg/week, unpublished data): regress

SMILES: C[C@]12CC[C@@H]3c4ccc(O)cc4CC[C@H]3[C@@H]1CC[C@@H]2O [E2, 17-β-Estradiol]
- tumor regression (HI-responsive tumors [6]; 0.5-5 mg): regress
- tumor growth (T61 human tumors): induces tumor regression
